{"source": "patent US20060019892A1", "about": "(Florida Atlantic University, priority 2003, published 2006)", "test_system": "primary cultures of rat neonatal cortex (cultured cortical neurons)", "format": "cell-based", "note": "Non-standard residues stand in square brackets, D forms with d. No end group written: not given here. Hyp = O=C(O)[C@@H]1C[C@@H](O)CN1", "data": [{"substance": "A-O-A-N-S-V-W-S (A[Hyp]ANSVWS) [gla-2]", "values": [{"measurement": "effect on Ca^++ flux in the cells", "value": "reducing Ca^++ flux"}, {"measurement": "modulation of Ca^++ flux in cultured neurons from rat cortex", "value": "modulate Ca^++ flux"}]}]}
